Patent US5478841A, “Fluorinated quinolones, process for their preparation and pharmaceutical preparations containing same” (Bouchara S.A., priority 1992, dated 1995)
Converted amounts (≈) assume the structure as drawn.

How the values were obtained:
S. aureus ATCC 25923 = assay: MIC/MBC, microdilution in Mueller-Hinton broth, S. aureus ATCC 25923; type: cell-based; conditions: Staphylococcus aureus; for MIC: ATCC25923, 18 h at 37° C., about 10^6 bacteria/ml, read-out: MINIMAL INHIBITORY CONCENTRATION (MIC); for MBC: ATCC25923, read-out: MINIMAL BACTERICIDAL CONCENTRATION (MBC)
Protocol: (§1) The products were tested vis-a-vis 7 reference strains
Straphylococcus aureus ATCC 25923
(§2) The preparation of these mother solutions produced, varied according to the molecules as a function of solubility criteria.
(§3) The inoculation is carried out by adding to each cupule 10 μl of a dilution in physiological water of an 18 hour broth of heart/brain broth such that each cupule contains about 10^6 bacteria/ml.
(§4) The minimal inhibitory concentration is read as the first concentration of antibiotic giving no culture which is macroscopically visible after incubation for 18 hours at 37° C.

S. faecalis ATCC 25922 = assay: MIC/MBC, microdilution in Mueller-Hinton broth, S. faecalis; type: cell-based, Streptococcus faecalis; conditions: Enterococcus faecalis, ATCC25922, 18 h, read-out: MINIMAL INHIBITORY CONCENTRATION (MIC)
Protocol: (§5) The products were tested vis-a-vis 7 reference strains […]
as §2, §3, §4

S. faecalis = assay: as above; type: cell-based, Streptococcus faecalis; conditions: Enterococcus faecalis, ATCC25922, read-out: MINIMAL BACTERICIDAL CONCENTRATION (MBC)
Protocol: as §5, §2, §3, §4

E. coli ATCC 25922 = assay: MIC/MBC, microdilution in Mueller-Hinton broth, E. coli; type: cell-based; conditions: Escherichia coli; for MIC: ATCC25922, 18 h at 37° C., about 10^6 bacteria/ml, read-out: MINIMAL INHIBITORY CONCENTRATION (MIC); for MBC: ATCC25922, read-out: MINIMAL BACTERICIDAL CONCENTRATION (MBC)
Protocol: as §1
Escherichia coli ATCC 25922
as §2, §3, §4

P. aeruginosa ATCC 22853 = assay: MIC/MBC, microdilution in Mueller-Hinton broth, P. aeruginosa; type: cell-based; conditions: Pseudomonas aeruginosa; for MIC: ATCC22853, 18 h, read-out: MINIMAL INHIBITORY CONCENTRATION (MIC); for MBC: ATCC22853, read-out: MINIMAL BACTERICIDAL CONCENTRATION (MBC)
Protocol: as §1
Pseudomonas aeruginosa ATCC 22853
as §2, §3, §4

[1] = test system: Acinetobacter Baumanii ATCC 17904; assay: MIC/MBC, microdilution in Mueller-Hinton broth, Acinetobacter; type: cell-based; conditions: Acinetobacter baumannii
Protocol: as §1
Acinetobacter calcoaceticus variety anitratum ATCC 17903
as §2, §3, §4

S. aureus CB-951 = assay: MIC/MBC, microdilution in Mueller-Hinton broth, S. aureus CB-951; type: cell-based; conditions: Staphylococcus aureus, CB951, S. aureus CB-951, methicillino resistant, pefloxacino resistant
Protocol: as §1
Staphylococcus aureus CB 951
as §2, §3, §4

solubility in water = type: physicochemical; conditions: hydrochloride, pale yellow crystals

| SMILES | MIC (S. aureus ATCC 25923) [µg/mL] | MBC (S. aureus ATCC 25923) [µg/mL] | MIC (S. faecalis ATCC 25922) [µg/mL] | MBC (S. faecalis) [µg/mL] | MIC (E. coli ATCC 25922) [µg/mL] | MBC (E. coli ATCC 25922) [µg/mL] | MIC (P. aeruginosa ATCC 22853) [µg/mL] | MBC (P. aeruginosa ATCC 22853) [µg/mL] | MIC ([1]; ATCC17904, 18 h, read-out: MINIMAL INHIBITORY CONCENTRATION (MIC)) [µg/mL] | MBC ([1]; ATCC17904, read-out: MINIMAL BACTERICIDAL CONCENTRATION (MBC)) [µg/mL] | MIC (S. aureus CB-951; 18 h at 37° C., about 10^6 bacteria/ml, read-out: MINIMAL INHIBITORY CONCENTRATION (MIC)) [µg/mL] | MBC (S. aureus CB-951; read-out: MINIMAL BACTERICIDAL CONCENTRATION (MBC)) [µg/mL] | solubility in water (solubility in water) |
| --- | --- | --- | --- | --- | --- | --- | --- | --- | --- | --- | --- | --- | --- |
| CC(C)n1cc(C(=O)O)c(=O)c2cc(F)c(N3CCC(CN)CC3)c(F)c21 [Compound 7, 6,8-difluoro-1-isopropyl-7-((4-aminomethyl)-1-piperidinyl)-quinolone-3-carboxylic acid] | 3.2 (≈ 8.43 µM) | 6.4 (≈ 16.9 µM) | 3.2 (≈ 8.43 µM) | 25.6 (≈ 67.5 µM) | 1.6 (≈ 4.22 µM) | 1.6 (≈ 4.22 µM) | 25.6 (≈ 67.5 µM) | > 51.2 | – | – | – | – | – |
| NCC1CCN(c2cc3c(cc2F)c(=O)c(C(=O)O)cn3C2CC2)CC1 [Compound 5, 6-fluoro-1-cyclopropyl-7-((4-aminomethyl)-1-piperidinyl)-quinolone-3-carboxylic acid] | 0.25 (≈ 0.696 µM) | 0.5 (≈ 1.39 µM) | – | – | 0.25 (≈ 0.696 µM) | 0.5 (≈ 1.39 µM) | – | – | – | – | – | – | – |
| NCC1CCN(c2c(F)cc3c(=O)c(C(=O)O)cn(C4CC4)c3c2F)CC1 [Compound 1, 6,8-difluoro-7-[(4-aminomethyl)-1-piperdinyl]-1-(1-cyclopropyl)-4-oxo-1,4-dihydroquinolinyl-3-carboxylic acid] | 0.06 (≈ 0.159 µM) | 0.06 (≈ 0.159 µM) | 1 (≈ 2.65 µM) | 1 (≈ 2.65 µM) | 2 (≈ 5.3 µM) | 4 (≈ 10.6 µM) | > 16 | > 16 | 0.03 (≈ 0.0795 µM) | 0.03 (≈ 0.0795 µM) | 0.25 (≈ 0.662 µM) | 0.25 (≈ 0.662 µM) | moderately soluble in water |
